Like-named read-outs stand apart in the source and are kept apart here.
Assays:
[1] = test system: genotype 1b HCV replicon in Huh-7 cells; assay: HCV replicon luciferase assay, genotype 1b; format: cell-based; conditions: Hepatitis C virus, 72 h, Huh-7, Renilla luciferase, 3 days
Experimental: Cell lines. The cell lines used to evaluate compounds consist of a human hepatocyte derived cell line (Huh-7) that constitutively expresses a genotype 1a or 1b HCV replicon containing a Renilla luciferase reporter gene. These cells were maintained in Dulbecco's modified Eagle medium (DMEM) containing 10% FBS, 100 U/mL penicillin/streptomycin and 1.0 mg/mL G418.
HCV Replicon Luciferase Assay.
To evaluate compound efficacy, HCV replicon cells were seeded in 96-well plates in DMEM containing 10% FBS at a cell density of 10^4/well. Following incubation at 37° C. overnight, compounds serially diluted in DMSO were added to the cell plates. Alternatively, titrated compounds were transferred to sterile 384-well tissue-culture treated plates and the plates seeded with 50 μL of cells at a density of 2.4×10^3 cells/well in DMEM containing 4% FCS (final DMSO concentration at 0.5%). After 3 days incubation at 37° C., cells were analyzed for Renilla Luciferase activity using the EnduRen substrate (Promega cat #E6485) according to the manufacturer's directions. Briefly, the EnduRen substrate was diluted in DMEM and then added to the plates to a final concentration of 7.5 μM. The plates were incubated for at least 1 h at 37° C. then read on a TopCount NXT Microplate Scintillation and Luminescence Counter (Packard) or Viewlux Imager (PerkinElmer) using a luminescence program. The 50% effective concentration (EC50) was calculated using the exponential form of the median effect equation where EC50=100−[(δFinh/δFcon)×100].

[2] = test system: HCV RNA levels; conditions: cited from earlier work
[3] = test system: HCV; conditions: combination therapy; cited from earlier work

Row | Compound | EC50 ([1]; read-out: EC50 1b (class)) [µM] | EC50 ([1]; read-out: EC50 (uM) 1b) [µM] | also measured
1 | CNC(=O)c1c(-c2ccc(F)cc2)oc2cc3c(cc12)-c1cc(cc(C(=O)NC(C)(C)C)c1)NC(=O)CCCCC(=O)N3 [Compound 1051] | > 1 |  | 
2 | CNC(=O)c1c(-c2ccc(F)cc2)oc2cc3c(cc12)-c1cc(C(=O)NC(C)(C)C)cc(c1)N(S(C)(=O)=O)CCCCCCN3S(C)(=O)=O [Compound 1003] | 0.1 to 1 |  | 
3 | CNC(=O)c1c(-c2ccc(F)cc2)oc2cc3c(cc12)-c1cc(cc(C(=O)NC(C)(C)C)c1)NC(=O)CCCCCCCCC(=O)N3 [Compound 1052] | 0.1 to 1 | 0.789 | 
4 | CNC(=O)c1c(-c2ccc(F)cc2)oc2cc3c(cc12)-c1cc(C(=O)NC(C)(C)C)cc(c1)N(S(C)(=O)=O)CCc1ccc(cc1)CCN3S(C)(=O)=O [Compound 1006] | > 1 | 1.21 | 
5 | CNC(=O)c1c(-c2ccc(F)cc2)oc2cc3c(cc12)-c1cc(C(=O)NC(C)(C)C)cc(c1)N(S(C)(=O)=O)CCCCN3S(C)(=O)=O [Compound 1001] | 0.1 to 1 | 0.171 | 
6 | CNC(=O)c1c(-c2ccc(F)cc2)oc2cc3c(cc12)-c1cc(cc(C(=O)NC(C)(C)C)c1)NC(=O)OCCOCCOCCOC(=O)N3 [Compound 1056] | > 1 | 8.34 | 
7 | CNC(=O)c1c(-c2ccc(F)cc2)oc2cc3c(cc12)-c1cc(cc(C(=O)NC(C)(C)C)c1)NC(=S)NCCCCNC(=S)N3 [Compound 1057] | > 1 |  | 
8 | CNC(=O)c1c(-c2ccc(F)cc2)oc2cc3c(cc12)-c1cc(cc(C(=O)NC(C)(C)C)c1)NC(=S)NCCCCCCCCNC(=S)N3 [Compound 1058] | > 1 |  | 
9 | CNC(=O)c1c(-c2ccc(F)cc2)oc2cc3c(cc12)-c1cc(C(=O)NC(C)(C)C)cc(c1)N(S(C)(=O)=O)CCCCCCCN3S(C)(=O)=O [Compound 1004] | < 0.1 | 0.0477 | 
10 | CNC(=O)c1c(-c2ccc(F)cc2)oc2cc3c(cc12)-c1cc(C(=O)NC(C)(C)C)cc(c1)N(S(C)(=O)=O)CCCCCCCCN3S(C)(=O)=O [Compound 1005] | 0.1 to 1 |  | 
11 | CNC(=O)c1c(-c2ccc(F)cc2)oc2cc3c(cc12)-c1cc(C(=O)NC(C)(C)C)cc(c1)N(S(C)(=O)=O)CCCCCN3S(C)(=O)=O [Compound 1002] | 0.1 to 1 |  | 
12 | CNC(=O)c1c(-c2ccc(F)cc2)oc2cc3c(cc12)-c1cc(cc(C(=O)NC(C)(C)C)c1)NC(=O)OCCOCCOC(=O)N3 [Compound 1055] | > 1 |  | 
13 | CNC(=O)c1c(-c2ccc(F)cc2)oc2cc3c(cc12)-c1cc(cc(C(=O)NC(C)(C)C)c1)NC(=O)OCCOC(=O)N3 [Compound 1054] | > 1 |  | 
14 | CNC(=O)c1c(-c2ccc(F)cc2)oc2cc(N(CCO)S(C)(=O)=O)c(C3CC3)cc12 [HCV-796] |  |  | hepatic toxicity ([2]; extended dosing of the combination regimens): hepatic toxicity observed; HCV RNA levels in patients ([2]; patients, single agent or combined with interferon and ribavirin): reduce HCV RNA levels
15 | alpha-interferon and ribavirin |  |  | sustained efficacy [3]: 40 % of patients
16 | CNC(=O)c1c(-c2ccc(F)cc2)oc2cc3c(cc12)-c1cc(cc(C(=O)NC(C)(C)C)c1)NC(=O)CCCCCCCCCCC(=O)N3 [Compound 1053] | 0.1 to 1 |  | 

Reference: patent US9434738B2, “Macrocyclic benzofuran and azabenzofuran compounds for the treatment of hepatitis C” (BRISTOL-MYERS SQUIBB COMPANY, priority 2013, dated 2016)
